ChEMBL document CHEMBL2331237, “Amides of 4-hydroxy-8-methanesulfonylamino-quinoline-2-carboxylic acid as zinc-dependent inhibitors of Lp-PLA₂” (Bioorg Med Chem Lett, 2013)

These molecules were tested against T1, Platelet-activating factor acetylhydrolase (Homo sapiens, UniProt Q13093) (assay: Inhibition of human plasma Lp-PLA2 using 2- thio-PAF as substrate incubated for 20 mins prior to substrate addition measured after 1 hr).
T1 sequence (Q13093 whole entry): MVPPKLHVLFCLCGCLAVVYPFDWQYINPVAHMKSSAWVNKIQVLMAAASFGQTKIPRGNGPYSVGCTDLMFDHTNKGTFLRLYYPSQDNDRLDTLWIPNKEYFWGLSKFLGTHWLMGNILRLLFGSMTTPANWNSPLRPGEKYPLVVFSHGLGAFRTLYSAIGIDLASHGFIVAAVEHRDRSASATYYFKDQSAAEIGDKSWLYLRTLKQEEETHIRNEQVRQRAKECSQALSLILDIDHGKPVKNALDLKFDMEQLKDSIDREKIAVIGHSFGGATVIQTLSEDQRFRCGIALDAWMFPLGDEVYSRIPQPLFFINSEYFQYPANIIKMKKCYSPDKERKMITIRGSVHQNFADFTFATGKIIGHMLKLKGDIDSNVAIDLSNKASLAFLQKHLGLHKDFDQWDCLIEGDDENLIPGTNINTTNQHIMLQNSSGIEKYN

IC50, > 100 µM:
COc1cc(NS(=O)(=O)c2ccc(C)cc2)c2ncccc2c1
CCOC(=O)COc1cc(NS(=O)(=O)c2ccc(C)cc2)c2nc(C)ccc2c1
CS(=O)(=O)Nc1cccc2c(O)cc(C(=O)NC3CCCCCCCCCCCCC3)nc12
